Experimental data reported in PubChem BioAssay (NCI).
Where “and” joins values, the source holds several entries; their conditions need not be identical. Equal values may be shown once.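 Where inhibition never reached the appropriate level, the endpoint shown equals the highest concentration tested. Otherwise, values were interpolated linearly from a five-concentration, 48-hour dose response in 96-well plates. GI50 is the concentration that inhibits growth by half. TGI: total growth inhibition.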

Tests used:
Test in all cases: inhibition of tumour cell growth, NCI panel, 48 h
786-0 renal = tested on: 786-0 renal
A498 renal = tested on: A498 renal
A549 NSCLC = tested on: A549 NSCLC
ACHN renal = tested on: ACHN renal
BT-549 breast = tested on: BT-549 breast
CAKI-1 renal = tested on: CAKI-1 renal
CCRF-CEM leukemia = tested on: CCRF-CEM leukemia
COLO 205 colon = tested on: COLO 205 colon
DLD-1 colon = tested on: DLD-1 colon
DMS 114 small cell lung = tested on: DMS 114 small cell lung
DMS 273 small cell lung = tested on: DMS 273 small cell lung
EKVX NSCLC = tested on: EKVX NSCLC
HCC-2998 colon = tested on: HCC-2998 colon
HCT-116 colon = tested on: HCT-116 colon
HCT-15 colon = tested on: HCT-15 colon
HL-60(TB) leukemia = tested on: HL-60(TB) leukemia
HOP-18 NSCLC = tested on: HOP-18 NSCLC
HOP-62 NSCLC = tested on: HOP-62 NSCLC
HOP-92 NSCLC = tested on: HOP-92 NSCLC
HT29 colon = tested on: HT29 colon
IGROV1 ovarian = tested on: IGROV1 ovarian
K-562 leukemia = tested on: K-562 leukemia
KM12 colon = tested on: KM12 colon
KM20L2 colon = tested on: KM20L2 colon
LOX IMVI melanoma = tested on: LOX IMVI melanoma
LXFL 529 NSCLC = tested on: LXFL 529 NSCLC
M14 melanoma = tested on: M14 melanoma
M19-MEL melanoma = tested on: M19-MEL melanoma
MALME-3M melanoma = tested on: MALME-3M melanoma
MCF7 breast = tested on: MCF7 breast
MDA-MB-231 breast = tested on: MDA-MB-231 breast
MDA-MB-435 = tested on: MDA-MB-435
MDA-N = tested on: MDA-N
MOLT-4 leukemia = tested on: MOLT-4 leukemia
NCI-H226 lung = tested on: NCI-H226 lung
NCI-H23 lung = tested on: NCI-H23 lung
NCI-H460 lung = tested on: NCI-H460 lung
NCI-H522 lung = tested on: NCI-H522 lung
NCI/ADR-RES ovarian = tested on: NCI/ADR-RES ovarian
OVCAR-3 ovarian = tested on: OVCAR-3 ovarian
OVCAR-4 ovarian = tested on: OVCAR-4 ovarian
OVCAR-5 ovarian = tested on: OVCAR-5 ovarian
OVCAR-8 ovarian = tested on: OVCAR-8 ovarian
PC-3 prostate = tested on: PC-3 prostate
RPMI-8226 leukemia = tested on: RPMI-8226 leukemia
RXF 393 renal = tested on: RXF 393 renal
SF-268 CNS = tested on: SF-268 CNS
SF-295 CNS = tested on: SF-295 CNS
SF-539 CNS = tested on: SF-539 CNS
SK-MEL-2 melanoma = tested on: SK-MEL-2 melanoma
SK-MEL-28 melanoma = tested on: SK-MEL-28 melanoma
SK-MEL-5 melanoma = tested on: SK-MEL-5 melanoma
SK-OV-3 ovarian = tested on: SK-OV-3 ovarian
SN12C renal = tested on: SN12C renal
SNB-19 CNS = tested on: SNB-19 CNS
SNB-75 CNS = tested on: SNB-75 CNS
SNB-78 CNS = tested on: SNB-78 CNS
SR leukemia = tested on: SR leukemia
SW-620 colon = tested on: SW-620 colon
TK-10 renal = tested on: TK-10 renal
U251 CNS = tested on: U251 CNS
UACC-257 melanoma = tested on: UACC-257 melanoma
UACC-62 melanoma = tested on: UACC-62 melanoma
UO-31 renal = tested on: UO-31 renal
XF 498 CNS = tested on: XF 498 CNS

SMILES: COc1cc(C2c3cc4c(cc3[C@@H](Nc3ccc(N)cc3)C3COC(=O)[C@H]23)OCO4)cc(OC)c1O (some centres undefined)
- GI50 (786-0 renal): 0.514 µM
- TGI (786-0 renal): 4.43 µM
- GI50 (A498 renal): 0.781 µM
- TGI (A498 renal): 6.39 µM
- GI50 (A549 NSCLC): 0.317 µM
- TGI (A549 NSCLC): 3.46 µM
- GI50 (ACHN renal): 0.345 µM
- TGI (ACHN renal): 6.05 µM
- TGI (BT-549 breast): 8.5 µM
- GI50 (CAKI-1 renal): 0.326 µM
- TGI (CAKI-1 renal): 0.903 µM and 5.93 µM
- GI50 (CCRF-CEM leukemia): 0.271 µM
- TGI (CCRF-CEM leukemia): 0.953 µM and 5.61 µM
- GI50 (COLO 205 colon): 0.996 µM
- TGI (COLO 205 colon): 47.7 µM
- TGI (DLD-1 colon): 22.2 µM
- GI50 (DMS 114 small cell lung): 0.911 µM
- TGI (DMS 114 small cell lung): 8.77 µM
- TGI (DMS 273 small cell lung): 5.39 µM
- GI50 (EKVX NSCLC): 0.953 µM
- TGI (EKVX NSCLC): 10.9 µM
- TGI (HCC-2998 colon): 9.07 µM
- GI50 (HCT-116 colon): 0.973 µM
- TGI (HCT-116 colon): 23 µM
- TGI (HCT-15 colon): 22.6 µM
- GI50 (HL-60(TB) leukemia): 0.287 µM and 0.422 µM
- TGI (HL-60(TB) leukemia): 0.862 µM and 5.63 µM
- GI50 (HOP-18 NSCLC): 0.944 µM
- TGI (HOP-18 NSCLC): 40.4 µM
- TGI (HOP-62 NSCLC): 0.865 µM and 2.5 µM
- GI50 (HOP-92 NSCLC): 0.495 µM
- TGI (HT29 colon): 54 µM
- TGI (IGROV1 ovarian): 16.4 µM
- TGI (K-562 leukemia): 46.3 µM
- TGI (KM12 colon): 14.3 µM
- TGI (KM20L2 colon): 21.4 µM
- TGI (LOX IMVI melanoma): 6.48 µM
- TGI (LXFL 529 NSCLC): 31 µM
- GI50 (M14 melanoma): 0.652 µM
- TGI (M14 melanoma): 18.6 µM
- GI50 (M19-MEL melanoma): 0.99 µM
- TGI (M19-MEL melanoma): 23.7 µM
- GI50 (MALME-3M melanoma): 0.849 µM
- TGI (MALME-3M melanoma): 19.7 µM
- TGI (MCF7 breast): 12.3 µM
- TGI (MDA-MB-231 breast): 34.8 µM
- TGI (MDA-MB-435): 29.6 µM
- TGI (MDA-N): 18.4 µM
- GI50 (MOLT-4 leukemia): 0.175 µM and 0.0292 µM
- TGI (MOLT-4 leukemia): 0.8 µM and 0.825 µM
- GI50 (NCI-H226 lung): 0.336 µM
- TGI (NCI-H226 lung): 0.868 µM and 4.7 µM
- GI50 (NCI-H23 lung): 0.415 µM
- TGI (NCI-H23 lung): 4.85 µM
- GI50 (NCI-H460 lung): 0.139 µM
- TGI (NCI-H460 lung): 2.36 µM
- GI50 (NCI-H522 lung): 0.789 µM
- TGI (NCI-H522 lung): 6.57 µM
- TGI (NCI/ADR-RES ovarian): 44.5 µM
- TGI (OVCAR-3 ovarian): 20 µM
- TGI (OVCAR-4 ovarian): 41.6 µM
- GI50 (OVCAR-5 ovarian): 0.896 µM
- TGI (OVCAR-5 ovarian): 31.6 µM
- GI50 (OVCAR-8 ovarian): 0.87 µM
- TGI (OVCAR-8 ovarian): 15.8 µM
- TGI (PC-3 prostate): 16.5 µM
- TGI (RPMI-8226 leukemia): 12 µM
- TGI (RXF 393 renal): 13.2 µM
- GI50 (SF-268 CNS): 0.89 µM
- TGI (SF-268 CNS): 19.3 µM
- GI50 (SF-295 CNS): 0.502 µM
- TGI (SF-295 CNS): 4.76 µM
- GI50 (SF-539 CNS): 0.729 µM
- TGI (SF-539 CNS): 6.51 µM
- TGI (SK-MEL-2 melanoma): 18.9 µM
- TGI (SK-MEL-28 melanoma): 33.9 µM
- GI50 (SK-MEL-5 melanoma): 0.701 µM
- TGI (SK-MEL-5 melanoma): 7.09 µM
- GI50 (SK-OV-3 ovarian): 0.805 µM
- TGI (SK-OV-3 ovarian): 17.3 µM
- GI50 (SN12C renal): 0.492 µM
- TGI (SN12C renal): 6.15 µM
- GI50 (SNB-19 CNS): 0.555 µM
- TGI (SNB-19 CNS): 17.3 µM
- GI50 (SNB-75 CNS): 0.347 µM
- TGI (SNB-78 CNS): 60.5 µM
- GI50 (SR leukemia): 0.151 µM
- TGI (SR leukemia): 0.682 µM and 6.81 µM
- GI50 (SW-620 colon): 0.823 µM
- TGI (SW-620 colon): 24.5 µM
- TGI (TK-10 renal): 23.7 µM
- TGI (U251 CNS): 4.2 µM
- TGI (UACC-257 melanoma): 28 µM
- GI50 (UACC-62 melanoma): 0.711 µM
- TGI (UACC-62 melanoma): 11.3 µM
- GI50 (UO-31 renal): 0.727 µM
- TGI (UO-31 renal): 4.79 µM
- GI50 (XF 498 CNS): 0.716 µM
- TGI (XF 498 CNS): 13.6 µM
